Measurements reported in PMC8151276, “An Integrated Approach toward NanoBRET Tracers for Analysis of GPCR Ligand Engagement” (Molecules, 2021).

Columns and labels:
Type in all cases: binding
GABBR2 = target: T1, GABBR2 (Homo sapiens, UniProt O75899); experiment: NanoBRET screen HiBiT-GABBR2 in HEK293
T1 construct: purchased Promega (in-house HiBiT-GPCR construct library, NanoBRET)
T1 sequence (O75899 42-941): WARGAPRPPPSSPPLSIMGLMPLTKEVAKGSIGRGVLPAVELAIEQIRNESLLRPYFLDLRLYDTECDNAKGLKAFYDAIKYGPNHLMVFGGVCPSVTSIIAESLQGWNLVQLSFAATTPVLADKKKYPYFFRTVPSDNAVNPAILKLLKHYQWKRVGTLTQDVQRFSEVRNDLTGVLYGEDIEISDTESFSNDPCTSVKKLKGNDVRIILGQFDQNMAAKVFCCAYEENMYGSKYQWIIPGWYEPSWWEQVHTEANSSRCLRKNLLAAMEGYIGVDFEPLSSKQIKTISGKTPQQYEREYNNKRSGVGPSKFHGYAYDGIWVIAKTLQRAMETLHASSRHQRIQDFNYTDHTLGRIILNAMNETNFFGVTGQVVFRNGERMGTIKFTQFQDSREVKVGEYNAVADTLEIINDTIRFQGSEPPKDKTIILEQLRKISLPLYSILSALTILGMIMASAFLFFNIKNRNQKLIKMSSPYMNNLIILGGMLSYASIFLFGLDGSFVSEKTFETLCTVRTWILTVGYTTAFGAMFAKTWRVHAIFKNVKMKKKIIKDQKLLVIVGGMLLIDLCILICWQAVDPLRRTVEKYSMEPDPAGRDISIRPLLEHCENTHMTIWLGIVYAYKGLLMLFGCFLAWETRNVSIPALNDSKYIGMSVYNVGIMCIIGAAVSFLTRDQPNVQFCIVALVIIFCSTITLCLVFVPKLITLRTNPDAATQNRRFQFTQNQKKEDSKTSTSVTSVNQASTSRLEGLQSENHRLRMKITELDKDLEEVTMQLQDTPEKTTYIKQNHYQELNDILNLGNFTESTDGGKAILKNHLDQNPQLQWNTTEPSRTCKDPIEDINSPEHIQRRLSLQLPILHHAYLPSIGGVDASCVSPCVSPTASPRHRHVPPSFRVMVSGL
Experimental: (§1) Each tracer candidate was screened across the entire library of HiBiT-GPCR constructs using NanoBRET as the detection modality. As depicted in Figure 4A, the specificity of interactions was evaluated through decrease in BRET due to competitive displacement of a bound tracer by excess parental compound. Each tracer was analyzed for binding to each HiBiT-GPCR fusion in the absence and in the presence of competing parental compound. Briefly, HEK293 cells were transfected with HiBiT-GPCR constructs diluted into promoterless DNA to reduce expression and maximize translocation to the cell surface. Each tracer candidate was then screened at concentrations of 1 μM and 0.1 μM across cells expressing these fusions. Cells were treated for 1.5 h with tracer either alone or in the presence of 20 μM competing parental compound (i.e., control). BRET was measured upon addition of purified LgBiT and subsequent complementation with HiBiT genetically fused to a GPCR. The specificity of interactions was assessed through a decrease in BRET signal due to competitive displacement of the bound tracer. To further gauge the robustness of these interactions, the fold response over the control (i.e., BRETtracer/BRETcontrol) was calculated. We chose a 1.5-fold response, which translates to ≥7-fold signal over noise as the minimal threshold required to score an interaction as positive. […]. Below we highlight the screening results obtained for our exemplary fluorescent tracers based on Clozapine, Amitriptyline and AZD1283.
(§2) HiBiT-GPCR DNA constructs were diluted in 10 mM Tris pH 8 to a final concentration of 0.01 μg/μL, arrayed in 96-well plates and stored at −20 °C. For transfection, HEK293 cells were suspended in Opti-MEM (without phenol red) supplemented with 2% fetal bovine serum (Seradigm) and 100 units/mL penicillin–streptomycin (Gibco) at a final concentration of 220,000 cells/mL and dispensed into white 96-well plates at 90 μL/well. Subsequent transfections and screens were carried using an Agilent Bravo Automated Liquid Handling Platform. First, the 96-well HiBiT DNA arrays were diluted 25-fold in Opti-MEM (without serum or phenol red) to a final concentration of 0.0004 μg/μL and 20 μL of the diluted DNAs were transferred into new 96-well plates. Next, promoterless carrier DNA (1 μg/μL) was diluted 25-fold (0.04 μg/μL) and then dispensed into the diluted arrays at 20 μL/well. Following brief mixing, Viafect transfection reagent (Promega) diluted 16-fold into Opti-MEM was dispensed into the plates at 40 μL/well. After mixing by pipetting, plates were incubated for 10 min on the pipetting station deck. The DNA-transfection reagent complexes were then added to plates containing cells. To facilitate the screen, 10 μL of DNA-transfection reagent complexes were added in duplicates to the top 4 and bottom 4 rows, resulting in two identical 48-well arrays per plate. Plates with transfected cells were incubated for 18–20 h at 37 °C/5% CO2. A screen of each tracer across the entire library using two different concentrations requires duplicate plates of transfected cells. Depending on the number of tracers being screened, transfections can be scaled up using the same ratios. The next day, for each tracer, four 20× screening solutions in tracer dilution buffer (Promega) were prepared: two duplicates at final concentration of 20 μM and two duplicates at a final concentration of 2 μM. A competing unmodified compound was added to one of each duplicate at a final concentration of 400 μM. The four resulting solutions were diluted 4-fold in Opti-MEM without serum or phenol red to generate 5× solutions (5 µM and 0.5 µM tracer +/− 100 μM competing compound). To screen the library, a BioTek MultiFlo FX liquid dispenser was used to dispense 22.5 µL of tracer solution to the top 4 rows and 22.5 µL tracer + competing compound solution to the 4 bottom rows. Plates were briefly mixed on an orbital shaker and incubated for 1.5 h at room temperature. […]

C5AR2 = target: T2, C5AR2 (Homo sapiens, UniProt Q9P296); experiment: NanoBRET screen HiBiT-C5AR2 in HEK293
T2 construct: purchased Promega (in-house HiBiT-GPCR construct library, NanoBRET)
Experimental: as §1, §2

SSTR4 = target: T3, SSTR4 (Homo sapiens, UniProt P31391); experiment: NanoBRET screen HiBiT-SSTR4 in HEK293
T3 construct: purchased Promega (in-house HiBiT-GPCR construct library, NanoBRET)
Experimental: as §1, §2

T2 sequence (Q9P296 whole entry): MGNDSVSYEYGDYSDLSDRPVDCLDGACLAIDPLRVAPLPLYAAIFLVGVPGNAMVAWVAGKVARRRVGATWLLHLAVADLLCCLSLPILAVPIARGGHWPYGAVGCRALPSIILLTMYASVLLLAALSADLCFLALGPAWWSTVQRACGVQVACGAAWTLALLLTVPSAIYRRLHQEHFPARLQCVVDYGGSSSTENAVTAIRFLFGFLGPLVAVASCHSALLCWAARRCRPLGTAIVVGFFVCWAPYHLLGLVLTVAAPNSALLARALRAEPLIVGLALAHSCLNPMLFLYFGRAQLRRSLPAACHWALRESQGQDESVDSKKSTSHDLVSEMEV
T3 sequence (P31391 whole entry): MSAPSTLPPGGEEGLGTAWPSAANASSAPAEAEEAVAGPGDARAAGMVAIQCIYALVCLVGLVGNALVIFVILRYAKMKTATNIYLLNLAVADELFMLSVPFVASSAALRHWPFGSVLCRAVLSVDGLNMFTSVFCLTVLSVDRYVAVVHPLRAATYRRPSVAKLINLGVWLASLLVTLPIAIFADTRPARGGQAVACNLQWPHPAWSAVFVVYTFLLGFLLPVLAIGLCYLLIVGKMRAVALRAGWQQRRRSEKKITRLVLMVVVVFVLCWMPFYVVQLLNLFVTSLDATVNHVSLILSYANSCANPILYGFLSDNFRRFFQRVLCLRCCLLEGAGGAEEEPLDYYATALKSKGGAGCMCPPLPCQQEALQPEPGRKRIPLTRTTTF

Row | SMILES | NanoBRET Fold Response (GABBR2; GABBR2, tracer 0.1μM) | NanoBRET Fold Response (GABBR2; GABBR2, tracer 1μM) | NanoBRET Fold Response (C5AR2; C5AR2, tracer 0.1μM) | NanoBRET Fold Response (C5AR2; C5AR2, tracer 1μM) | NanoBRET Fold Response (SSTR4; SSTR4, tracer 0.1μM) | NanoBRET Fold Response (SSTR4; SSTR4, tracer 1μM) | other results
1 | N#CN=C(NCCCOc1cccc(CN2CCCCC2)c1)NCCNC(=O)CCOCCOCCOCCOCCNC(=O)CCc1ccc2n1[B-](F)(F)[N+]1=C(c3ccc[nH]3)C=CC1=C2 [Aminopotentidine-2-NB590] | 1.03 | 0.94 | 1.06 | 1.03 | 1.08 | 1.00 | –
2 | O=C(CCc1ccc2n1[B-](F)(F)[N+]1=C(c3ccc[nH]3)C=CC1=C2)NCc1ccc(C(=O)NCCOCCOCCNCC(O)COc2cccc3ccccc23)cc1 (stereo not drawn) [Propranolol-3-NB590] | – | – | – | – | – | – | NanoBRET Fold Response (GABBR2; GABBR2, 0.1μM): 0.96; NanoBRET Fold Response (GABBR2; GABBR2, 1μM): 1.13; NanoBRET Fold Response (C5AR2; C5AR2, 0.1μM): 1.00; NanoBRET Fold Response (C5AR2; C5AR2, 1μM): 1.01; NanoBRET Fold Response (SSTR4; SSTR4, 0.1μM): 1.02; NanoBRET Fold Response (SSTR4; SSTR4, 1μM): 0.98
3 | O=C(CCc1ccc2n1[B-](F)(F)[N+]1=C(c3ccc[nH]3)C=CC1=C2)NCc1ccc(C(=O)NCCOCCC(=O)N[C@@H]2CC[C@@]3(O)[C@H]4Cc5ccc(O)c6c5[C@@]3(CCN4CC3CC3)[C@H]2O6)cc1 [Naltrexone-3-NB590] | 0.80 | 1.11 | 0.95 | 1.01 | 0.99 | 0.90 | –
4 | COc1ccccc1N1CCN(CCCCN2C(=O)c3ccc(CNC(=O)CCOCCNC(=O)c4ccc(CNC(=O)CCc5ccc6n5[B-](F)(F)[N+]5=C(c7ccc[nH]7)C=CC5=C6)cc4)cc3C2=O)CC1 [NAN-190-3-NB590] | 1.03 | 1.10 | 0.87 | 1.07 | 0.90 | 1.05 | –
5 | Cc1cc2c(s1)Nc1ccccc1N=C2N1CCN(CCCNC(=O)CCOCCOCCOCCOCCNC(=O)CCc2ccc3n2[B-](F)(F)[N+]2=C(c4ccc[nH]4)C=CC2=C3)CC1 [Olanzapine-a-2-NB590] | 1.01 | 0.82 | 0.95 | 0.97 | 0.98 | 1.04 | –
6 | CCCn1c(=O)c2[nH]c(-c3ccc(OCC(=O)NCCNC(=O)CCOCCNC(=O)c4ccc(CNC(=O)CCc5ccc6n5[B-](F)(F)[N+]5=C(c7ccc[nH]7)C=CC5=C6)cc4)cc3)nc2n(CCC)c1=O [XAC-3-NB590] | 1.02 | 1.11 | 1.02 | 1.01 | 1.01 | 0.93 | –
7 | COc1ccc2c(n1)c(CCNC(C)=O)cn2CCNC(=O)CCc1ccc2n1[B-](F)(F)[N+]1=C(c3ccc[nH]3)C=CC1=C2 [Azamelatonin-1-NB590] | – | – | – | – | – | – | NanoBRET Fold Response (GABBR2; 0.1μM tracer): 0.96; NanoBRET Fold Response (GABBR2; 1μM tracer): 0.96; NanoBRET Fold Response (C5AR2; 0.1μM tracer): 0.90; NanoBRET Fold Response (C5AR2; 1μM tracer): 0.93; NanoBRET Fold Response (SSTR4; 0.1μM tracer): 0.93; NanoBRET Fold Response (SSTR4; 1μM tracer): 1.01
